Measurements: patent US6727264B1 (Synaptic Pharmaceutical Corporation, priority 2001, dated 2004)

Target: rat MCH-1 (Rattus norvegicus, UniProt P97639)
Assay: Radioligand binding assay at cloned rat MCH1 receptor ([3H] Compound A)
Design: host or cells: Peak rapid 293 (Peakr293) cells, transient calcium phosphate transfection, membranes
Conditions: cloned rat MCH1 receptor, membranes from Peakr293 cells, 0.08 nM [3H] Compound A; read-out: Ki (nM) rMCH1

Sequence of rat MCH-1 (P97639 whole entry): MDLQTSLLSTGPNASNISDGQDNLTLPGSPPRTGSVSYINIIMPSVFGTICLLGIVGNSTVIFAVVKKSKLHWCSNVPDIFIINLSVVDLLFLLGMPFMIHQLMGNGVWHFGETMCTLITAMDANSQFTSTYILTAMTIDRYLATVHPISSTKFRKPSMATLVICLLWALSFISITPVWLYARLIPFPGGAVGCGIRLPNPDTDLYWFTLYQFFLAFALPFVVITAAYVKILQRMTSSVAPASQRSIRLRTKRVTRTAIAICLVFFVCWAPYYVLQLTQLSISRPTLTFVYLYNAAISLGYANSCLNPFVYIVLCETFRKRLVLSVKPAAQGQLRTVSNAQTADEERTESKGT

Ki [nM] | Compound
61 | CC(C)C(=O)Nc1cccc(C2CCN(Cc3cn(-c4ccccc4C(F)(F)F)c4ccccc34)CC2)c1 [Example 448]
623 | COc1ccc2[nH]cc(CN3CCC(c4cccc(NC(=O)C(C)C)c4)CC3)c2c1 [Example 449]

Same assay, conditions: cloned rat MCH1 receptor; 0.08 nM [3H] Compound A; Peakr293 cell membranes; read-out: Ki (nM) rMCH1

Ki [nM] | Compound
12.3 | COc1cccc2c(CCCCN3CCC(c4cccc(NC(=O)C(C)C)c4)CC3)c(-c3ccccc3)[nH]c12 [Example 406]
16.6 | CC(C)C(=O)Nc1cccc(C2CCN(CCCc3cn(-c4ccccc4)c4ccccc34)CC2)c1 [Example 407]
21.6 | CC(C)C(=O)Nc1cccc(C2CCN(CCc3cn(-c4ccccc4)c4ccccc34)CC2)c1 [Example 408]
263 | CC(C)C(=O)Nc1cccc(C2CCN(CCc3cn(C)c4ccccc34)CC2)c1 [Example 410]
27 | CC(C)C(=O)Nc1cccc(C2CCN(CCc3c[nH]c4ccc(OC(F)(F)F)cc34)CC2)c1 [Example 412]
76.8 | CC(C)C(=O)Nc1cccc(C2CCN(CCCc3c[nH]c4c3ccc3ccccc34)CC2)c1 [Example 413]
2.9 | CC(C)C(=O)Nc1cccc(C2CCN(CCCc3cn(C)c4ccccc34)CC2)c1 [Example 414]
8.1 | Cc1ccc2[nH]cc(CCCN3CCC(c4cccc(NC(=O)C(C)C)c4)CC3)c2c1 [Example 415]
12.6 | CC(C)C(=O)Nc1cccc(C2CCN(CCCc3c[nH]c4ccc(OC(F)(F)F)cc34)CC2)c1 [Example 416]
20.5 | Cc1cccc2c(CCCN3CCC(c4cccc(NC(=O)C(C)C)c4)CC3)c[nH]c12 [Example 417]
51.6 | COc1cccc2c(CCCN3CCC(c4cccc(NC(=O)C(C)C)c4)CC3)c[nH]c12 [Example 418]
1.8 | Cc1ccc2[nH]c(-c3ccccc3)c(CCCCN3CCC(c4cccc(NC(=O)C(C)C)c4)CC3)c2c1 [Example 421]
173 | Cc1ccc(-n2cc(CN3CCC(c4ccc(NC(=O)C(C)C)cc4)CC3)c3ccccc32)cc1 [Example 422]
405 | CCCC(=O)Nc1ccc(C2CCN(Cc3cn(-c4ccc(C)cc4)c4ccccc34)CC2)cc1 [Example 423]
114 | CC(C)C(=O)Nc1cccc(C2CCN(Cc3c(-c4ccccc4N)[nH]c4ccccc34)CC2)c1 [Example 424]
599 | CCOC(=O)c1[nH]c2ccccc2c1CN1CCC(c2cccc(NC(=O)C(C)C)c2)CC1 [Example 425, ETHYL 3-({4-[3-(ISOBUTYRYLAMINO)PHENYL]-1-PIPERIDINYL}METHYL)-1H-INDOLE-2-CARBOXYLATE]
556 | CC(C)C(=O)Nc1cccc(C2CCN(Cc3cn(C)c4ccccc34)CC2)c1 [Example 426]
248 | COc1ccc2[nH]c(C)c(CN3CCC(c4cccc(NC(=O)C(C)C)c4)CC3)c2c1 [Example 427]
132 | CC(C)C(=O)Nc1cccc(C2CCN(Cc3c(-c4ccccc4)n(C)c4ccccc34)CC2)c1 [Example 428]
121 | CC(C)C(=O)Nc1cccc(C2CCN(Cc3c[nH]c4ccc([N+](=O)[O-])cc34)CC2)c1 [Example 429]
647 | Cc1[nH]c2ccccc2c1CN1CCC(c2cccc(NC(=O)C(C)C)c2)CC1 [Example 430]
968 | CC(C)C(=O)Nc1cccc(C2CCN(Cc3c[nH]c4cccc(Br)c34)CC2)c1 [Example 431]
198 | CC(C)C(=O)Nc1cccc(C2CCN(Cc3c(-c4ccc(F)cc4)[nH]c4ccccc34)CC2)c1 [Example 432]
30.4 | CC(C)C(=O)Nc1cccc(C2CCN(Cc3c(-c4ccccc4)n(-c4ccccc4)c4ccccc34)CC2)c1 [Example 433]

Ki [nM] | Compound
214 | CCn1c(-c2ccc(Cl)cc2)c(CN2CCC(c3cccc(NC(=O)C(C)C)c3)CC2)c2ccccc21 [Example 434]
215 | Cc1[nH]c2ccc(Cl)cc2c1CN1CCC(c2cccc(NC(=O)C(C)C)c2)CC1 [Example 435]
434 | CC(C)C(=O)Nc1cccc(C2CCN(Cc3c[nH]c4ccc(C#N)cc34)CC2)c1 [Example 436]
552 | Cc1ccc2[nH]c(-c3ccccc3)c(CN3CCC(c4cccc(NC(=O)C(C)C)c4)CC3)c2c1 [Example 437]
1.3 | CC(C)C(=O)Nc1cccc(C2CCN(Cc3cn(-c4ccc([N+](=O)[O-])cc4)c4ccccc34)CC2)c1 [Example 438]
8.5 | CC(C)C(=O)Nc1cccc(C2CCN(Cc3cn(-c4ccccc4F)c4ccccc34)CC2)c1 [Example 439]
107 | COc1cc2[nH]cc(CN3CCC(c4cccc(NC(=O)C(C)C)c4)CC3)c2cc1OC [Example 440]
10.1 | Cc1cccc(-n2cc(CN3CCC(c4cccc(NC(=O)C(C)C)c4)CC3)c3ccccc32)c1 [Example 441]
7.8 | CC(C)C(=O)Nc1cccc(C2CCN(Cc3cn(-c4cccc(C(F)(F)F)c4)c4ccccc34)CC2)c1 [Example 442]
23.4 | COc1ccc(-n2cc(CN3CCC(c4cccc(NC(=O)C(C)C)c4)CC3)c3ccccc32)cc1 [Example 443]
545 | COc1ccc2[nH]c(-c3ccccc3)c(CN3CCC(c4cccc(NC(=O)C(C)C)c4)CC3)c2c1 [Example 444]
486 | Cc1ccc2[nH]cc(CN3CCC(c4cccc(NC(=O)C(C)C)c4)CC3)c2c1 [Example 445]
17.9 | CC(C)C(=O)Nc1cccc(C2CCN(Cc3cn(-c4ccccc4[N+](=O)[O-])c4ccccc34)CC2)c1 [Example 446]
9.8 | COc1ccccc1-n1cc(CN2CCC(c3cccc(NC(=O)C(C)C)c3)CC2)c2ccccc21 [Example 447]
61 | CC(C)C(=O)Nc1cccc(C2CCN(Cc3cn(-c4ccccc4C(F)(F)F)c4ccccc34)CC2)c1 [Example 448]
623 | COc1ccc2[nH]cc(CN3CCC(c4cccc(NC(=O)C(C)C)c4)CC3)c2c1 [Example 449]
7.1 | CC(C)C(=O)Nc1cccc(C2CCN(Cc3cn(-c4ccc(F)cc4)c4ccccc34)CC2)c1 [Example 450]
18.7 | COc1cccc(-n2cc(CN3CCC(c4cccc(NC(=O)C(C)C)c4)CC3)c3ccccc32)c1 [Example 451]
12.7 | Cc1ccccc1-n1cc(CN2CCC(c3cccc(NC(=O)C(C)C)c3)CC2)c2ccccc21 [Example 452]
195 | CCOC(=O)c1[nH]c2ccc(OC)cc2c1CN1CCC(c2cccc(NC(=O)C(C)C)c2)CC1 [Example 453, ETHYL 3-({4-[3-(ISOBUTYRYLAMINO)PHENYL]-1-PIPERIDINYL}METHYL)-5-METHOXY-1H-INDOLE-2-CARBOXYLATE]
772 | CC(C)C(=O)Nc1cccc(C2CCN(Cc3c[nH]c4ccc(F)cc34)CC2)c1 [Example 454]
10.6 | CCC(=O)Nc1cccc(C2CCN(Cc3cn(-c4ccc(Cl)cc4)c4ccccc34)CC2)c1 [Example 455]
28 | CCC(=O)Nc1cccc(C2CCN(Cc3cn(-c4cccc(Cl)c4)c4ccccc34)CC2)c1 [Example 456]
27.4 | O=C(Nc1cccc(C2CCN(Cc3cn(-c4ccccc4Cl)c4ccccc34)CC2)c1)C1CC1 [Example 457]

Ki [nM] | Compound
15.3 | CC(C)C(=O)Nc1cccc(C2CCN(Cc3cn(-c4cccc(Cl)c4)c4ccccc34)CC2)c1 [Example 458]
10.4 | CC(C)C(=O)Nc1cccc(C2CCN(Cc3cn(-c4ccc(Cl)cc4)c4ccccc34)CC2)c1 [Example 459]
9.1 | CC(C)C(=O)Nc1cccc(C2CCN(Cc3cn(-c4ccccc4Cl)c4ccccc34)CC2)c1 [Example 460]
35.6 | CCC(=O)Nc1cccc(C2CCN(Cc3cn(-c4ccccc4Cl)c4ccccc34)CC2)c1 [Example 461]
12.4 | O=C(Nc1cccc(C2CCN(Cc3cn(-c4ccc(Cl)cc4)c4ccccc34)CC2)c1)C1CC1 [Example 462]
17.2 | O=C(Nc1cccc(C2CCN(Cc3cn(-c4cccc(Cl)c4)c4ccccc34)CC2)c1)C1CC1 [Example 463]
84.1 | CCC(=O)Nc1cccc(C2CCN(Cc3cn(-c4ccccc4)c4ccccc34)CC2)c1 [Example 464]
10.7 | O=C(Nc1cccc(C2CCN(Cc3cn(-c4ccccc4)c4ccccc34)CC2)c1)C1CC1 [Example 465]
912 | CCC(=O)Nc1cccc(C2CCN(Cc3c[nH]c4cc(F)ccc34)CC2)c1 [Example 468]
479 | O=C(Nc1cccc(C2CCN(Cc3c[nH]c4cc(F)ccc34)CC2)c1)C1CC1 [Example 469]
654 | CC(C)C(=O)Nc1cccc(C2CCN(Cc3c[nH]c4cc(F)ccc34)CC2)c1 [Example 470]
4.3 | CC(C)C(=O)Nc1cccc(C2CCN(Cc3cn(-c4ccc(F)cc4)c4cc(Cl)ccc34)CC2)c1 [Example 471]
12.2 | CCC(=O)Nc1cccc(C2CCN(Cc3cn(-c4ccccc4F)c4cc(Cl)ccc34)CC2)c1 [Example 472]
11.3 | O=C(Nc1cccc(C2CCN(Cc3cn(-c4ccccc4F)c4cc(Cl)ccc34)CC2)c1)C1CC1 [Example 473]
13.3 | CC(C)C(=O)Nc1cccc(C2CCN(Cc3cn(-c4ccccc4F)c4cc(Cl)ccc34)CC2)c1 [Example 474]
12.4 | CCC(=O)Nc1cccc(C2CCN(Cc3cn(-c4ccc(Cl)cc4)c4cc(Cl)ccc34)CC2)c1 [Example 475]
12.7 | O=C(Nc1cccc(C2CCN(Cc3cn(-c4ccc(Cl)cc4)c4cc(Cl)ccc34)CC2)c1)C1CC1 [Example 476]
14.9 | CC(C)C(=O)Nc1cccc(C2CCN(Cc3cn(-c4ccc(Cl)cc4)c4cc(Cl)ccc34)CC2)c1 [Example 477]
11.7 | CCC(=O)Nc1cccc(C2CCN(Cc3cn(-c4cccc(Cl)c4)c4cc(Cl)ccc34)CC2)c1 [Example 478]
8.1 | O=C(Nc1cccc(C2CCN(Cc3cn(-c4cccc(Cl)c4)c4cc(Cl)ccc34)CC2)c1)C1CC1 [Example 479]
9 | CC(C)C(=O)Nc1cccc(C2CCN(Cc3cn(-c4cccc(Cl)c4)c4cc(Cl)ccc34)CC2)c1 [Example 480]
664 | O=C(Nc1cccc(C2CCN(Cc3c[nH]c4ccc(F)cc34)CC2)c1)C1CC1 [Example 481]

Compound | Ki [nM]
Cc1cccc2c(CCN3CCC(c4cccc(NC(=O)C(C)C)c4)CC3)c[nH]c12 [Example 409] | 96.7
Cc1ccc2[nH]cc(CCN3CCC(c4cccc(NC(=O)C(C)C)c4)CC3)c2c1 [Example 411] | 82.3
COc1cccc2c(CCN3CCC(c4cccc(NC(=O)C(C)C)c4)CC3)c[nH]c12 [Example 419] | 83.9
